This note sets out measurements from US11207312B2, “Metallo-beta-lactamase inhibitors and methods of use thereof” (priority 2017, dated 2021).

SMILES strings stand for the structures.

One series concerns the target NDM-1 (Klebsiella pneumoniae, UniProt C7C422). Description: biochemical. It is filed as biochemical. The following applies: CCF2-FA fluorescence assay, 2 hours at 25° C. A digest of the protocol:
(§1)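 Buffer 100 mM KH2PO4 pH 7, 0.005% Tween-20, 10 μM ZnSO4. NDM-1 1 pM, IMP-1 2 pM, VIM-1 30 pM final; CCF2-FA 1.25 μM. Cpd 20–0.00063 μM, 2 h, 25° C. Ex 405/Em 460 nm; IC50 via 4-parameter curve.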

The next series addresses IMP-1 (Serratia marcescens, UniProt P52699). Description: biochemical. The following applies: CCF2-FA fluorescence assay, 2 hours at 25° C.; read-out: IMP1 IC50. A digest of the protocol:
as §1

In the next series the target is VIM-1 (Pseudomonas aeruginosa (strain ATCC 15692 / DSM 22644 / CIP 104116 / JCM 14847 / LMG 12228 / 1C / PRS 101 / PAO1), UniProt A0A0F7KYQ8). The experiment in a line: biochemical. The following applies: CCF2-FA fluorescence assay, 2 hours at 25° C.; read-out: VIM1 IC50. A digest of the protocol:
as §1

Another series deals with VIM-2 (Escherichia coli, UniProt Q5U7L7). Description: biochemical. The following applies: CCF2-FA fluorescence assay; read-out: VIM2 IC50.
For series [1], the system named is Escherichia coli expressing NDM-1 (CLB30016). It is filed as cell-based. To be noted: with imipenem 1 μg/ml; 95% inhibition of bacterial growth. In short, it runs like this: (§2)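 MITC95 denotes the minimal test-compound level that, combined with 1 μg/ml imipenem, blocks 95% of bacterial growth, measured by absorbance. Overnight-grown clinical isolates were diluted 1:100 in CAMHB and incubated with both agents at 35° C for 22–24 h.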

The test system of series [2] is Klebsiella pneumoniae expressing VIM-1 (IHMA599644). It is filed as cell-based. The following applies: with imipenem 1 μg/ml; 95% inhibition of bacterial growth. In short, it runs like this:
as §2

The test system of series [3] is Serratia marcescens expressing IMP-1 (CL5741). It counts as cell-based. The following applies: with imipenem 1 μg/ml; 95% inhibition of bacterial growth. A digest of the protocol:
as §2

For series [4], the system named is P. aeruginosa MB9798 (efflux+, IMP-1 plasmid). To be noted: for MB9798 MITC95 P. aeruginosa uM Efflux WT: efflux + (MB9798) strain, imipenem at 2 μg/mL, in the presence of a class A, C, D serine β-lactamase inhibitor closely related to relebactam; for Efflux ratio: fold difference between efflux+ (MB9798) and efflux− (MB9799) strains. In short, it runs like this: (§3)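 PAO1-derived isogenic pair (oprD+, inducible AmpC), efflux+ MB5919 or efflux− MB5890 parent, carrying an electroporated IMP-1 plasmid from a clinical isolate. Microbroth MIC with fixed imipenem and/or ceftazidime (usually CLSI breakpoint) plus fixed class A/C inhibitor; MBL inhibitor serially titrated, concentration restoring susceptibility recorded.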

Series [5] concerns P. aeruginosa MB9799 (efflux-, IMP-1 plasmid). It counts as cell-based, Pseudomonas aeruginosa. To be noted: efflux − (MB9799) strain; imipenem at 2 μg/mL; in the presence of a class A, C, D serine β-lactamase inhibitor closely related to relebactam. In short, it runs like this: as §3

IMP-1, sequence (P52699 whole entry, looked up, species assumed): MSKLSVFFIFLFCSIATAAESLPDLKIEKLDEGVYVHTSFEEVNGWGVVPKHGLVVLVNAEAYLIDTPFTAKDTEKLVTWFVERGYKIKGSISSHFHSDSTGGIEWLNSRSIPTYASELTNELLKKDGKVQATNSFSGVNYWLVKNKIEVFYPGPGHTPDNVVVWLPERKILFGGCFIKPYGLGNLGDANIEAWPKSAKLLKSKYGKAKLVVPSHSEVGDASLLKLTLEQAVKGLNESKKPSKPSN
NDM-1, sequence (C7C422 whole entry, looked up, species assumed): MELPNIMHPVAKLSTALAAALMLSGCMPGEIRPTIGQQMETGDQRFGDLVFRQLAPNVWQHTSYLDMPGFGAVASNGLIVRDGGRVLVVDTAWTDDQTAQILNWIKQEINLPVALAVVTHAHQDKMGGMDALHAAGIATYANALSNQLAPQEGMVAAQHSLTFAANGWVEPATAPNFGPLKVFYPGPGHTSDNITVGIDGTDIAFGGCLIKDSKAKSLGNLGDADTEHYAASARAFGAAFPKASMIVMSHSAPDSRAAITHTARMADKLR

Broadly, the IC50 is the point on the concentration scale where inhibition reaches its midpoint. With `NS(=O)(=O)c1c(S(=O)(=O)N[C@@H]2CCNC2)ccc(N2CCN(CCCO)CC2)c1-c1nnn[nH]1` [Example 93, 4-[4-(3-hydroxypropyl)piperazin-1-yl]-N1-[(3R)-pyrrolidin-3-yl]-3-(1H-tetrazol-5-yl)benzene-1,2-disulfonamide], the IC50 at NDM-1 was 1.71 nM; at IMP-1, 2.52 nM; at VIM-1 it was 3.62 nM; at VIM-2, 6.73 nM. Moreover, in [1], the “CLB30016 E. coli MITC95 NDM” value came out at 0.39 µM. The “IHMA599644 K. pneumoniae MITC95 VIM” value in series [2] was determined as 1.56 µM. Besides, in series [3], the “CL5741 S. marcescens MITC95 IMP” value amounted to 0.20 µM. Also, in series [4], the “MB9798 MITC95 P. aeruginosa uM Efflux WT” value turned out to be 3.13 µM. Besides, in series [4], the Efflux ratio stood at 2.00. For the same compound, the “MB9799 MITC95 P. aeruginosa uM Efflux Mutant” value in series [5] was 1.56 µM.

As to `C[C@H](CN)NS(=O)(=O)c1ccc(N2CC[C@@H](N)[C@@H](F)C2)c(-c2nn[nH]n2)c1S(N)(=O)=O` (racemic) [Example 5], the IC50 amounted to 0.96 nM on NDM-1, 1.81 nM at IMP-1, 0.13 nM at VIM-1 and 2.54 nM on VIM-2. Besides, the “CLB30016 E. coli MITC95 NDM” value in series [1] is 0.10 µM. The “IHMA599644 K. pneumoniae MITC95 VIM” value in series [2] worked out at 0.78 µM. Moreover, the “CL5741 S. marcescens MITC95 IMP” value in series [3] was 0.20 µM. Moreover, the “MB9798 MITC95 P. aeruginosa uM Efflux WT” value in [4] worked out at 0.78 µM. Further, in series [4], the Efflux ratio stood at 2.00. Also, in series [5], the “MB9799 MITC95 P. aeruginosa uM Efflux Mutant” value stood at 0.39 µM.

As to `NC[C@@H](O)CNS(=O)(=O)c1ccc(N2CCOC(CO)C2)c(-c2nn[nH]n2)c1S(N)(=O)=O` (stereo partly drawn) [Example 20, N^1—((R)-3-amino-2-hydroxypropyl)-4-(2-(hydroxymethyl)morpholino)-3-(2H-tetrazol-5-yl)benzene-1,2-disulfonamide], the IC50 against NDM-1 amounted to 0.77 nM; on IMP-1 it was 1.53 nM; at VIM-1, 0.26 nM; on VIM-2, 0.49 nM. Also, the “CLB30016 E. coli MITC95 NDM” value in [1] was 1.56 µM. Also, in series [2], the “IHMA599644 K. pneumoniae MITC95 VIM” value was determined as 3.13 µM. The “CL5741 S. marcescens MITC95 IMP” value in series [3] worked out at 0.78 µM. Besides, the “MB9798 MITC95 P. aeruginosa uM Efflux WT” value in [4] was determined as 3.13 µM. Further, the Efflux ratio in [4] was 4.00. For the same compound, in series [5], the “MB9799 MITC95 P. aeruginosa uM Efflux Mutant” value was found to be 0.78 µM.

As to `NS(=O)(=O)c1c(S(=O)(=O)N[C@@H]2CCNC2)ccc(N2CCCC(O)C2=O)c1-c1nn[nH]n1` (stereo partly drawn) [Example 148, 4-(3-hydroxy-2-oxopiperidin-1-yl)-N1-((R)-pyrrolidin-3-yl)-3-(2H-tetrazol-5-yl)benzene-1,2-disulfonamide], the IC50 was 0.76 nM against NDM-1, 28.1 nM on IMP-1, 0.35 nM on VIM-1 and 1.5 nM on VIM-2. For the same compound, the “CLB30016 E. coli MITC95 NDM” value in [1] turned out to be 0.39 µM. For the same compound, the “IHMA599644 K. pneumoniae MITC95 VIM” value in series [2] amounted to 3.13 µM. Moreover, in series [3], the “CL5741 S. marcescens MITC95 IMP” value is 1.56 µM. For the same compound, the “MB9798 MITC95 P. aeruginosa uM Efflux WT” value in series [4] was 3.13 µM. In series [4], the Efflux ratio was found to be 2.00. For the same compound, in series [5], the “MB9799 MITC95 P. aeruginosa uM Efflux Mutant” value is 1.56 µM.

With `CC1(O)CCCN(c2ccc(S(=O)(=O)C3CNC3)c(S(N)(=O)=O)c2-c2nnn[nH]2)C1` (stereo not shown) [Example 59, 6-(azetidin-3-ylsulfonyl)-3-(3-hydroxy-3-methylpiperidin-1-yl)-2-(1H-tetrazol-5-yl)benzenesulfonamide], the IC50 was 3.22 nM on NDM-1, 8.38 nM on IMP-1, 1.84 nM on VIM-1 and 2.18 nM at VIM-2. Moreover, the “CLB30016 E. coli MITC95 NDM” value in series [1] is 6.25 µM. Also, the “IHMA599644 K. pneumoniae MITC95 VIM” value in [2] was determined as 6.25 µM. The “CL5741 S. marcescens MITC95 IMP” value in series [3] amounted to 6.25 µM. In series [4], the “MB9798 MITC95 P. aeruginosa uM Efflux WT” value stood at 50.00 µM. Moreover, the Efflux ratio in [4] was determined as 16.00. Further, the “MB9799 MITC95 P. aeruginosa uM Efflux Mutant” value in series [5] came out at 3.13 µM.

As to `NC(=O)C1CCN(c2ccc(S(=O)(=O)N[C@@H]3CCNC3)c(S(N)(=O)=O)c2-c2nnn[nH]2)CC1` [Example 94, 1-{4-[(3R)-pyrrolidin-3-ylsulfamoyl]-3-sulfamoyl-2-(1H-tetrazol-5-yl)phenyl}piperidine-4-carboxamide], the concentration for half-maximal inhibition (IC50) against NDM-1 came to 0.18 nM; on IMP-1, 0.5 nM; at VIM-1, 0.27 nM; at VIM-2, 1.18 nM. Further, the “CLB30016 E. coli MITC95 NDM” value in series [1] was 3.13 µM. Besides, the “IHMA599644 K. pneumoniae MITC95 VIM” value in [2] was 6.25 µM. Also, the “CL5741 S. marcescens MITC95 IMP” value in [3] is 6.25 µM. In addition, the “MB9798 MITC95 P. aeruginosa uM Efflux WT” value in series [4] was 3.13 µM. The Efflux ratio in series [4] was determined as 1.00. The “MB9799 MITC95 P. aeruginosa uM Efflux Mutant” value in series [5] came to 3.13 µM.

For the compound `NCC1CCN(c2ccc(S(=O)(=O)N[C@H](CN)CO)c(S(N)(=O)=O)c2-c2nn[nH]n2)CC1` [Example 186, (R)-N1-(1-amino-3-hydroxypropan-2-yl)-4-(4-(aminomethyl)piperidin-1-yl)-3-(2H-tetrazol-5-yl)benzene-1,2-disulfonamide], the IC50 on NDM-1 worked out at 18.7 nM; at IMP-1 it was 40.6 nM; on VIM-1, 2.85 nM; on VIM-2, 68.7 nM. The “CLB30016 E. coli MITC95 NDM” value in series [1] was 3.13 µM. In addition, the “IHMA599644 K. pneumoniae MITC95 VIM” value in [2] was found to be 1.56 µM. Also, the “CL5741 S. marcescens MITC95 IMP” value in [3] came out at 1.56 µM. For the same compound, in series [4], the “MB9798 MITC95 P. aeruginosa uM Efflux WT” value is 1.56 µM. For the same compound, the Efflux ratio in series [4] was 2.00. The “MB9799 MITC95 P. aeruginosa uM Efflux Mutant” value in series [5] was 0.78 µM.

Take `COC1(CO)CCN(c2ccc(S(=O)(=O)N[C@H](C)CN)c(S(N)(=O)=O)c2-c2nn[nH]n2)CC1` [Example 19, (R)-N1-(1-aminopropan-2-yl)-4-(4-(hydroxymethyl)-4-methoxypiperidin-1-yl)-3-(2H-tetrazol-5-yl)benzene-1,2-disulfonamide]: the IC50 on NDM-1 came to 0.17 nM; on IMP-1 it was 0.37 nM; on VIM-1, 0.65 nM; on VIM-2, 2.27 nM. Further, in series [1], the “CLB30016 E. coli MITC95 NDM” value was 3.13 µM. The “IHMA599644 K. pneumoniae MITC95 VIM” value in [2] was 12.50 µM. The “CL5741 S. marcescens MITC95 IMP” value in series [3] came to 3.13 µM. Besides, the “MB9798 MITC95 P. aeruginosa uM Efflux WT” value in [4] worked out at 3.13 µM. Moreover, in series [4], the Efflux ratio was found to be 1.00. Moreover, in [5], the “MB9799 MITC95 P. aeruginosa uM Efflux Mutant” value was found to be 3.13 µM.

`CC1CN(c2ccc(S(=O)(=O)NC[C@H](O)CN)c(S(N)(=O)=O)c2-c2nn[nH]n2)CCN1CCO.O=C(O)C(F)(F)F.O=C(O)C(F)(F)F` (stereo partly drawn) [Example 176, N1-((R)-3-amino-2-hydroxypropyl)-4-(4-(2-hydroxyethyl)-3-methylpiperazin-1-yl)-3-(2H-tetrazol-5-yl)benzene-1,2-disulfonamide bis(2,2,2-trifluoroacetate) salt]: the IC50 at NDM-1 came out at 2.51 nM; on IMP-1, 5.1 nM; on VIM-1, 2.76 nM; on VIM-2, 11.7 nM. Besides, in series [1], the “CLB30016 E. coli MITC95 NDM” value is 0.39 µM. In addition, the “IHMA599644 K. pneumoniae MITC95 VIM” value in series [2] was determined as 1.56 µM. Moreover, the “CL5741 S. marcescens MITC95 IMP” value in [3] came to 0.39 µM. The “MB9798 MITC95 P. aeruginosa uM Efflux WT” value in series [4] amounted to 3.13 µM. Further, the Efflux ratio in series [4] was determined as 2.00. Also, the “MB9799 MITC95 P. aeruginosa uM Efflux Mutant” value in series [5] was 1.56 µM.

As for `NC[C@@H](O)CNS(=O)(=O)c1ccc(N2CC[C@H](CN)[C@@H](O)C2)c(-c2nn[nH]n2)c1S(N)(=O)=O` [Example 10], the IC50 was 16.4 nM against NDM-1, 28.9 nM at IMP-1, 0.43 nM at VIM-1 and 27 nM on VIM-2. Further, the “CLB30016 E. coli MITC95 NDM” value in [1] was determined as 0.39 µM. For the same compound, in [2], the “IHMA599644 K. pneumoniae MITC95 VIM” value came to 1.56 µM. For the same compound, the “CL5741 S. marcescens MITC95 IMP” value in [3] was 0.39 µM. Moreover, the “MB9798 MITC95 P. aeruginosa uM Efflux WT” value in series [4] worked out at 3.13 µM. For the same compound, the Efflux ratio in [4] worked out at 4.00. The “MB9799 MITC95 P. aeruginosa uM Efflux Mutant” value in series [5] was 0.78 µM.
